Test results reported in ChEMBL document CHEMBL1201862, “PubChem BioAssay data set” (2004).
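Briefly, cells in 96-well plates were exposed to five compound concentrations for 48 h, and endpoints were estimated by linear interpolation. GI50: concentration for 50% inhibition of growth.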 Calls of active or inactive are those of the source. Cut-off read from the data, not from the text of the source: active = GI50 up to about 1.1 µM and inactive = higher.

Experiments:
Assay in all cases: growth of human tumour cells (NCI), 48 h
[1] = system: EKVX
[2] = system: LOX IMVI
[3] = system: OVCAR-8
[4] = system: CAKI-1
[5] = system: RPMI-8226
[6] = system: K562
[7] = system: A498
[8] = system: SNB-78
[9] = system: U-251
[10] = system: SN12C
[11] = system: SK-OV-3
[12] = system: LXFL 529
[13] = system: Malme-3M
[14] = system: UACC-257
[15] = system: M19-MEL
[16] = system: RXF 393
[17] = system: SNB-19
[18] = system: SNB-75
[19] = system: UACC-62
[20] = system: SK-MEL-28
[21] = system: DMS-273
[22] = system: NCI-H23
[23] = system: A549
[24] = system: UO-31
[25] = system: COLO 205
[26] = system: NCI-H460
[27] = system: DMS-114
[28] = system: IGROV-1
[29] = system: KM-20L2
[30] = system: OVCAR-5
[31] = system: HCC 2998
[32] = system: HOP-92
[33] = system: HOP-62
[34] = system: SF-295
[35] = system: HL-60
[36] = system: SF-539
[37] = system: SK-MEL-5
[38] = system: XF498
[39] = system: M14
[40] = system: MOLT-4
[41] = system: SK-MEL-2
[42] = system: OVCAR-3
[43] = system: ACHN
[44] = system: HCT-15
[45] = system: 786-0
[46] = system: DLD-1
[47] = system: CCRF-CEM
[48] = system: SF-268
[49] = system: SW-620
[50] = system: OVCAR-4
[51] = system: NCI-H522
[52] = system: TK-10
[53] = system: KM12
[54] = system: HT-29
[55] = system: NCI-H226
[56] = system: HCT-116

Cc1ccc(S(=O)(=O)N/N=C(\c2nc3ccc([N+](=O)[O-])cc3[nH]c2=O)C(O)c2ccc([N+](=O)[O-])cc2)cc1 (stereo not drawn)
GI50 [1]: > 100 µM (inactive) | GI50 [2]: 23.8 µM (inactive) | GI50 [3]: > 100 µM (inactive) | GI50 [4]: 97.1 µM (inactive) | GI50 [5]: 21.6 µM (inactive) | GI50 [6]: 29.2 µM (inactive) | GI50 [7]: > 100 µM (inactive) | GI50 [8]: > 100 µM (inactive) | GI50 [9]: > 100 µM (inactive) | GI50 [10]: > 100 µM (inactive) | GI50 [11]: > 100 µM (inactive) | GI50 [12]: 46 µM (inactive) | GI50 [13]: > 100 µM (inactive) | GI50 [14]: > 100 µM (inactive) | GI50 [15]: > 100 µM (inactive) | GI50 [16]: > 100 µM (inactive) | GI50 [17]: > 100 µM (inactive) | GI50 [18]: > 100 µM (inactive) | GI50 [19]: 85.5 µM (inactive) | GI50 [20]: > 100 µM (inactive) | GI50 [21]: 54 µM (inactive) | GI50 [22]: > 100 µM (inactive) | GI50 [23]: > 100 µM (inactive) | GI50 [24]: 56.9 µM (inactive) | GI50 [25]: > 100 µM (inactive) | GI50 [26]: 55.2 µM (inactive) | GI50 [27]: 32 µM (inactive) | GI50 [28]: > 100 µM (inactive) | GI50 [29]: 46.2 µM (inactive) | GI50 [30]: 67.1 µM (inactive) | GI50 [31]: 28.2 µM (inactive) | GI50 [32]: > 100 µM (inactive) | GI50 [33]: 51.2 µM (inactive) | GI50 [34]: > 100 µM (inactive) | GI50 [35]: 10 µM (inactive) | GI50 [36]: > 100 µM (inactive) | GI50 [37]: 73.8 µM (inactive) | GI50 [38]: > 100 µM (inactive) | GI50 [39]: > 100 µM (inactive) | GI50 [40]: 29.4 µM (inactive) | GI50 [41]: > 100 µM (inactive) | GI50 [42]: > 100 µM (inactive) | GI50 [43]: 35 µM (inactive) | GI50 [44]: 28.2 µM | GI50 [45]: > 100 µM (inactive) | GI50 [46]: 57.1 µM (inactive) | GI50 [47]: 22.3 µM (inactive) | GI50 [48]: 63.5 µM (inactive) | GI50 [49]: > 100 µM (inactive) | GI50 [50]: 68.9 µM (inactive) | GI50 [51]: 10.8 µM (inactive) | GI50 [52]: > 100 µM (inactive)

OC(c1ccccn1)C1CNc2ccccc21 (stereo not drawn)
GI50 [1]: > 100 µM (inactive) | GI50 [2]: > 100 µM (inactive) | GI50 [3]: > 100 µM (inactive) | GI50 [4]: > 100 µM (inactive) | GI50 [5]: > 100 µM (inactive) | GI50 [6]: > 100 µM (inactive) | GI50 [53]: > 100 µM (inactive) | GI50 [54]: > 100 µM (inactive) | GI50 [7]: > 100 µM (inactive) | GI50 [8]: > 100 µM (inactive) | GI50 [9]: > 100 µM (inactive) | GI50 [55]: > 100 µM (inactive) | GI50 [10]: > 100 µM (inactive) | GI50 [11]: > 100 µM (inactive) | GI50 [12]: > 100 µM (inactive) | GI50 [13]: > 100 µM (inactive) | GI50 [14]: > 100 µM (inactive) | GI50 [15]: > 100 µM (inactive) | GI50 [16]: > 100 µM (inactive) | GI50 [17]: > 100 µM (inactive) | GI50 [18]: 22.1 µM (inactive) | GI50 [56]: > 100 µM (inactive) | GI50 [19]: > 100 µM (inactive) | GI50 [20]: > 100 µM (inactive) | GI50 [21]: > 100 µM (inactive) | GI50 [22]: > 100 µM (inactive) | GI50 [23]: > 100 µM (inactive) | GI50 [24]: > 100 µM (inactive) | GI50 [25]: > 100 µM (inactive) | GI50 [26]: > 100 µM (inactive) | GI50 [27]: > 100 µM (inactive) | GI50 [28]: > 100 µM (inactive) | GI50 [29]: > 100 µM (inactive) | GI50 [30]: > 100 µM (inactive) | GI50 [31]: > 100 µM (inactive) | GI50 [32]: > 100 µM (inactive) | GI50 [33]: > 100 µM (inactive) | GI50 [34]: > 100 µM (inactive) | GI50 [35]: > 100 µM (inactive) | GI50 [36]: > 100 µM (inactive) | GI50 [37]: > 100 µM (inactive) | GI50 [38]: > 100 µM (inactive) | GI50 [39]: > 100 µM (inactive) | GI50 [40]: > 100 µM (inactive) | GI50 [41]: > 100 µM (inactive) | GI50 [42]: > 100 µM (inactive) | GI50 [43]: > 100 µM (inactive) | GI50 [44]: > 100 µM | GI50 [45]: > 100 µM (inactive) | GI50 [46]: > 100 µM (inactive) | GI50 [47]: > 100 µM (inactive) | GI50 [48]: > 100 µM (inactive) | GI50 [49]: > 100 µM (inactive) | GI50 [50]: > 100 µM (inactive) | GI50 [51]: > 100 µM (inactive) | GI50 [52]: > 100 µM (inactive)
